Reference: patent US8653041B2, “Antibacterial aminoglycoside analogs” (Achaogen, Inc., priority 2010, dated 2014)
Values after ≈ are worked out from the molar mass of the structure shown. Read-outs that look alike come from different tables or passages of the source.

Experiments:
Acinetobacter baumannii = test: MIC, CLSI broth microdilution, Acinetobacter baumannii panel; assay type: cell-based; settings: Acinetobacter baumannii, read-out: MIC
Procedure: (§1) Minimum inhibitory concentrations (MIC) were determined by reference Clinical and Laboratory Standards Institute (CLSI) broth microdilution methods per M7-A7 [2006]. Quality control ranges utilizing E. coli ATCC 25922, P. aeruginosa ATCC 27853 and S. aureus ATCC 29213, and interpretive criteria for comparator agents were as published in CLSI M100-S17 [2007]. Briefly, serial two-fold dilutions of the test compounds were prepared at 2× concentration in Mueller Hinton Broth. The compound dilutions were mixed in 96-well assay plates in a 1:1 ratio with bacterial inoculum. The inoculum was prepared by suspension of a colony from an agar plate that was prepared the previous day. Bacteria were suspended in sterile saline and added to each assay plate to obtain a final concentration of 5×10^5 CFU/mL. The plates were incubated at 35 C for 20 hours in ambient air.
The MIC panel presented in Table 2 contains 29 isolates of Acinetobacter baumannii: strains 1-24 are clinical isolates from around the world collected between 2004-2007 which contain representative resistance mechanisms commonly found in Acinetobacter baumannii, such as AAC(3)-I and II, AAC(6′)-I, ANT(2″)-I, APH(3′)-VI, and perm/efflux; strains 25-29 are susceptible.

Pseudomonas aeruginosa = test: MIC, CLSI broth microdilution, Pseudomonas aeruginosa panel; assay type: cell-based; settings: Pseudomonas aeruginosa, read-out: MIC
Procedure: as §1
The MIC panel presented in Table 1 contains 27 isolates of Pseudomonas aeruginosa: strains 1-22 are clinical isolates from around the world collected between 2004-2007 which contain representative resistance mechanisms commonly found in Pseudomonas, such as the AAC(6′)-I, AAC(6′)-II, APH(3′)-IIb, ANT(2″)-I, and perm/efflux; strains 23-27 are susceptible.

[1] = A. baumannii clinical strain 1 (resistant clinical isolate)
[2] = A. baumannii clinical strain 2 (resistant clinical isolate)
[3] = A. baumannii clinical strain 3 (resistant clinical isolate)
[4] = A. baumannii clinical strain 4 (resistant clinical isolate)
[5] = A. baumannii clinical strain 5 (resistant clinical isolate)
[6] = A. baumannii clinical strain 6 (resistant clinical isolate)
[7] = A. baumannii clinical strain 7 (resistant clinical isolate)
[8] = A. baumannii clinical strain 8 (resistant clinical isolate)
[9] = A. baumannii clinical strain 9 (resistant clinical isolate)
[10] = A. baumannii clinical strain 10 (resistant clinical isolate)
[11] = A. baumannii clinical strain 11 (resistant clinical isolate)
[12] = A. baumannii clinical strain 12 (resistant clinical isolate)
[13] = A. baumannii clinical strain 13 (resistant clinical isolate)
[14] = A. baumannii clinical strain 14 (resistant clinical isolate)
[15] = A. baumannii clinical strain 15 (resistant clinical isolate)
[16] = A. baumannii clinical strain 16 (resistant clinical isolate)
[17] = A. baumannii clinical strain 17 (resistant clinical isolate)
[18] = A. baumannii clinical strain 18 (resistant clinical isolate)
[19] = A. baumannii clinical strain 19 (resistant clinical isolate)
[20] = A. baumannii clinical strain 20 (resistant clinical isolate)
[21] = A. baumannii clinical strain 21 (resistant clinical isolate)
[22] = A. baumannii clinical strain 22 (resistant clinical isolate)
[23] = A. baumannii clinical strain 23 (resistant clinical isolate)
[24] = A. baumannii clinical strain 24 (resistant clinical isolate)
[25] = A. baumannii strain 25 (susceptible)
[26] = A. baumannii strain 26 (susceptible)
[27] = A. baumannii strain 27 (susceptible)
[28] = A. baumannii strain 28 (susceptible)
[29] = A. baumannii strain 29 (susceptible)
[30] = P. aeruginosa clinical strain 1 (resistant clinical isolate)
[31] = P. aeruginosa clinical strain 2 (resistant clinical isolate)
[32] = P. aeruginosa clinical strain 3 (resistant clinical isolate)
[33] = P. aeruginosa clinical strain 4 (resistant clinical isolate)
[34] = P. aeruginosa clinical strain 5 (resistant clinical isolate)
[35] = P. aeruginosa clinical strain 6 (resistant clinical isolate)
[36] = P. aeruginosa clinical strain 7 (resistant clinical isolate)
[37] = P. aeruginosa clinical strain 8 (resistant clinical isolate)
[38] = P. aeruginosa clinical strain 9 (resistant clinical isolate)
[39] = P. aeruginosa clinical strain 10 (resistant clinical isolate)
[40] = P. aeruginosa clinical strain 11 (resistant clinical isolate)
[41] = P. aeruginosa clinical strain 12 (resistant clinical isolate)
[42] = P. aeruginosa clinical strain 13 (resistant clinical isolate)
[43] = P. aeruginosa clinical strain 14 (resistant clinical isolate)
[44] = P. aeruginosa clinical strain 15 (resistant clinical isolate)
[45] = P. aeruginosa clinical strain 16 (resistant clinical isolate)
[46] = P. aeruginosa clinical strain 17 (resistant clinical isolate)
[47] = P. aeruginosa clinical strain 18 (resistant clinical isolate)
[48] = P. aeruginosa clinical strain 19 (resistant clinical isolate)
[49] = P. aeruginosa clinical strain 20 (resistant clinical isolate)
[50] = P. aeruginosa clinical strain 21 (resistant clinical isolate)
[51] = P. aeruginosa clinical strain 22 (resistant clinical isolate)
[52] = P. aeruginosa strain 23 (susceptible)
[53] = P. aeruginosa strain 24 (susceptible)
[54] = P. aeruginosa strain 25 (susceptible)
[55] = P. aeruginosa strain 26 (susceptible)
[56] = P. aeruginosa strain 27 (susceptible)

NCC[C@H](O)C(=O)N[C@@H]1C[C@H](N)[C@@H](O[C@H]2O[C@H](CN)[C@@H](O)[C@H](O)[C@H]2O)[C@H](O)[C@H]1O[C@H]1O[C@H](CO)[C@@H](O)[C@H](N)[C@H]1O [AMK, amikacin]
MIC (Acinetobacter baumannii; [1]): ≥ 32 mg/L | MIC (Acinetobacter baumannii; [2]): ≥ 32 mg/L | MIC (Acinetobacter baumannii; [3]): 8 to 16 mg/L (≈ 13.7 to 27.3 µM) | MIC (Acinetobacter baumannii; [4]): 16 to 32 mg/L (≈ 27.3 to 54.6 µM) | MIC (Acinetobacter baumannii; [5]): ≥ 32 mg/L | MIC (Acinetobacter baumannii; [6]): ≥ 32 mg/L | MIC (Acinetobacter baumannii; [7]): ≥ 32 mg/L | MIC (Acinetobacter baumannii; [8]): ≥ 32 mg/L | MIC (Acinetobacter baumannii; [9]): 1 to 8 mg/L (≈ 1.71 to 13.7 µM) | MIC (Acinetobacter baumannii; [10]): 1 to 8 mg/L (≈ 1.71 to 13.7 µM) | MIC (Acinetobacter baumannii; [11]): ≥ 32 mg/L | MIC (Acinetobacter baumannii; [12]): ≥ 32 mg/L | MIC (Acinetobacter baumannii; [13]): ≥ 32 mg/L | MIC (Acinetobacter baumannii; [14]): ≥ 32 mg/L | MIC (Acinetobacter baumannii; [15]): ≥ 32 mg/L | MIC (Acinetobacter baumannii; [16]): ≥ 32 mg/L | MIC (Acinetobacter baumannii; [17]): ≥ 32 mg/L | MIC (Acinetobacter baumannii; [18]): ≥ 32 mg/L | MIC (Acinetobacter baumannii; [19]): 1 to 8 mg/L (≈ 1.71 to 13.7 µM) | MIC (Acinetobacter baumannii; [20]): 1 to 8 mg/L (≈ 1.71 to 13.7 µM) | MIC (Acinetobacter baumannii; [21]): ≥ 32 mg/L | MIC (Acinetobacter baumannii; [22]): ≥ 32 mg/L | MIC (Acinetobacter baumannii; [23]): ≥ 32 mg/L | MIC (Acinetobacter baumannii; [24]): ≥ 32 mg/L | MIC (Acinetobacter baumannii; [25]): ≤ 1 mg/L | MIC (Acinetobacter baumannii; [26]): 1 to 8 mg/L (≈ 1.71 to 13.7 µM) | MIC (Acinetobacter baumannii; [27]): 1 to 8 mg/L (≈ 1.71 to 13.7 µM) | MIC (Acinetobacter baumannii; [28]): 1 to 8 mg/L (≈ 1.71 to 13.7 µM) | MIC (Acinetobacter baumannii; [29]): ≤ 1 mg/L | MIC (Pseudomonas aeruginosa; [30]): ≥ 32 mg/L | MIC (Pseudomonas aeruginosa; [31]): ≥ 32 mg/L | MIC (Pseudomonas aeruginosa; [32]): ≥ 32 mg/L | MIC (Pseudomonas aeruginosa; [33]): ≥ 32 mg/L | MIC (Pseudomonas aeruginosa; [34]): ≥ 32 mg/L | MIC (Pseudomonas aeruginosa; [35]): 8 to 16 mg/L (≈ 13.7 to 27.3 µM) | MIC (Pseudomonas aeruginosa; [36]): 1 to 8 mg/L (≈ 1.71 to 13.7 µM) | MIC (Pseudomonas aeruginosa; [37]): 16 to 32 mg/L (≈ 27.3 to 54.6 µM) | MIC (Pseudomonas aeruginosa; [38]): 8 to 16 mg/L (≈ 13.7 to 27.3 µM) | MIC (Pseudomonas aeruginosa; [39]): 16 to 32 mg/L (≈ 27.3 to 54.6 µM) | MIC (Pseudomonas aeruginosa; [40]): ≤ 1 mg/L | MIC (Pseudomonas aeruginosa; [41]): ≤ 1 mg/L | MIC (Pseudomonas aeruginosa; [42]): 1 to 8 mg/L (≈ 1.71 to 13.7 µM) | MIC (Pseudomonas aeruginosa; [43]): 1 to 8 mg/L (≈ 1.71 to 13.7 µM) | MIC (Pseudomonas aeruginosa; [44]): 8 to 16 mg/L (≈ 13.7 to 27.3 µM) | MIC (Pseudomonas aeruginosa; [45]): ≥ 32 mg/L | MIC (Pseudomonas aeruginosa; [46]): ≥ 32 mg/L | MIC (Pseudomonas aeruginosa; [47]): ≥ 32 mg/L | MIC (Pseudomonas aeruginosa; [48]): ≥ 32 mg/L | MIC (Pseudomonas aeruginosa; [49]): ≥ 32 mg/L | MIC (Pseudomonas aeruginosa; [50]): 16 to 32 mg/L (≈ 27.3 to 54.6 µM) | MIC (Pseudomonas aeruginosa; [51]): 16 to 32 mg/L (≈ 27.3 to 54.6 µM) | MIC (Pseudomonas aeruginosa; [52]): 1 to 8 mg/L (≈ 1.71 to 13.7 µM) | MIC (Pseudomonas aeruginosa; [53]): 1 to 8 mg/L (≈ 1.71 to 13.7 µM) | MIC (Pseudomonas aeruginosa; [54]): 1 to 8 mg/L (≈ 1.71 to 13.7 µM) | MIC (Pseudomonas aeruginosa; [55]): 1 to 8 mg/L (≈ 1.71 to 13.7 µM) | MIC (Pseudomonas aeruginosa; [56]): ≤ 1 mg/L

NC[C@H]1O[C@H](O[C@H]2[C@H](O)[C@@H](O[C@H]3O[C@H](CO)[C@@H](O)[C@H](N)[C@H]3O)[C@H](N)C[C@@H]2N)[C@H](N)C[C@@H]1O [TOB, tobramycin]
MIC (Acinetobacter baumannii; [1]): ≥ 32 mg/L | MIC (Acinetobacter baumannii; [2]): ≥ 32 mg/L | MIC (Acinetobacter baumannii; [3]): ≥ 32 mg/L | MIC (Acinetobacter baumannii; [4]): ≥ 32 mg/L | MIC (Acinetobacter baumannii; [5]): ≥ 32 mg/L | MIC (Acinetobacter baumannii; [6]): ≥ 32 mg/L | MIC (Acinetobacter baumannii; [7]): 1 to 8 mg/L (≈ 2.14 to 17.1 µM) | MIC (Acinetobacter baumannii; [8]): ≥ 32 mg/L | MIC (Acinetobacter baumannii; [9]): ≥ 32 mg/L | MIC (Acinetobacter baumannii; [10]): ≥ 32 mg/L | MIC (Acinetobacter baumannii; [11]): ≥ 32 mg/L | MIC (Acinetobacter baumannii; [12]): 16 to 32 mg/L (≈ 34.2 to 68.4 µM) | MIC (Acinetobacter baumannii; [13]): ≤ 1 mg/L | MIC (Acinetobacter baumannii; [14]): ≤ 1 mg/L | MIC (Acinetobacter baumannii; [15]): ≤ 1 mg/L | MIC (Acinetobacter baumannii; [16]): 1 to 8 mg/L (≈ 2.14 to 17.1 µM) | MIC (Acinetobacter baumannii; [17]): ≤ 1 mg/L | MIC (Acinetobacter baumannii; [18]): 1 to 8 mg/L (≈ 2.14 to 17.1 µM) | MIC (Acinetobacter baumannii; [19]): ≤ 1 mg/L | MIC (Acinetobacter baumannii; [20]): 1 to 8 mg/L (≈ 2.14 to 17.1 µM) | MIC (Acinetobacter baumannii; [21]): ≥ 32 mg/L | MIC (Acinetobacter baumannii; [22]): ≥ 32 mg/L | MIC (Acinetobacter baumannii; [23]): ≥ 32 mg/L | MIC (Acinetobacter baumannii; [24]): ≥ 32 mg/L | MIC (Acinetobacter baumannii; [25]): ≤ 1 mg/L | MIC (Acinetobacter baumannii; [26]): ≤ 1 mg/L | MIC (Acinetobacter baumannii; [27]): ≤ 1 mg/L | MIC (Acinetobacter baumannii; [28]): ≤ 1 mg/L | MIC (Acinetobacter baumannii; [29]): ≤ 1 mg/L | MIC (Pseudomonas aeruginosa; [30]): ≥ 32 mg/L | MIC (Pseudomonas aeruginosa; [31]): 16 to 32 mg/L (≈ 34.2 to 68.4 µM) | MIC (Pseudomonas aeruginosa; [32]): ≥ 32 mg/L | MIC (Pseudomonas aeruginosa; [33]): ≥ 32 mg/L | MIC (Pseudomonas aeruginosa; [34]): ≥ 32 mg/L | MIC (Pseudomonas aeruginosa; [35]): ≥ 32 mg/L | MIC (Pseudomonas aeruginosa; [36]): ≥ 32 mg/L | MIC (Pseudomonas aeruginosa; [37]): ≥ 32 mg/L | MIC (Pseudomonas aeruginosa; [38]): ≥ 32 mg/L | MIC (Pseudomonas aeruginosa; [39]): ≥ 32 mg/L | MIC (Pseudomonas aeruginosa; [40]): 8 to 16 mg/L (≈ 17.1 to 34.2 µM) | MIC (Pseudomonas aeruginosa; [41]): ≥ 32 mg/L | MIC (Pseudomonas aeruginosa; [42]): ≥ 32 mg/L | MIC (Pseudomonas aeruginosa; [43]): ≥ 32 mg/L | MIC (Pseudomonas aeruginosa; [44]): ≥ 32 mg/L | MIC (Pseudomonas aeruginosa; [45]): ≥ 32 mg/L | MIC (Pseudomonas aeruginosa; [46]): ≥ 32 mg/L | MIC (Pseudomonas aeruginosa; [47]): ≥ 32 mg/L | MIC (Pseudomonas aeruginosa; [48]): ≥ 32 mg/L | MIC (Pseudomonas aeruginosa; [49]): 1 to 8 mg/L (≈ 2.14 to 17.1 µM) | MIC (Pseudomonas aeruginosa; [50]): ≤ 1 mg/L | MIC (Pseudomonas aeruginosa; [51]): ≤ 1 mg/L | MIC (Pseudomonas aeruginosa; [52]): ≤ 1 mg/L | MIC (Pseudomonas aeruginosa; [53]): ≤ 1 mg/L | MIC (Pseudomonas aeruginosa; [54]): ≤ 1 mg/L | MIC (Pseudomonas aeruginosa; [55]): ≤ 1 mg/L | MIC (Pseudomonas aeruginosa; [56]): 1 to 8 mg/L (≈ 2.14 to 17.1 µM)
